Test results: patent publication EP1923473B1, “Bis-diglycolamides (BISDGA) as new extractants for lanthanides [Ln(III)] and actinides [An(III)] from aqueous high-level wastes” (Universidad Autónoma de Madrid, priority 2006, dated 2008)

How the values were obtained:
Format in all cases: physicochemical
[1] = Hydrolytic stability; conditions: 0.1 mol/L in n-dodecane/1-octanol (95:5)%vol; permanent contact with 3 mol/L nitric acid
Experimental: The organic solutions of the compounds to be tested were prepared and equilibrated with 3 mol/L nitric acid, as has been indicated in sections A) and B).
Then, 700 µL of the equilibrated organic phase were put in vials of an approximate volume of 2 mL and were contacted with 700 µL of 3 mol/L nitric acid. They were stirred vigorously in an oscillating shaker for periods of 7, 15, 24, 36, 42, 50 and 66 days. After each permanent contact period with the nitric acid aqueous phase, the extraction capability of the organic solution was evaluated, taking 600 µL of the corresponding organic phase and contacting it with 600 µL of aqueous phase formed by a 3 mol/L nitric acid solution spiked with 600 Bq of ^152Eu and with 600 Bq of ^241Am. It was stirred vigorously by means of an oscillating shaker for 15 minutes. The separation of the phases was carried out by centrifugation at 5000 rpm. 400 µL of each of the phases were taken for the determination of the concentration of ^152Eu and ^241Am, as in section C).
After the permanent contact periods with the 3 mol/L nitric acid solution, the extraction capability of the organic solutions of both compounds was evaluated with 3 mol/L nitric acid solutions containing 600 Bq of ^152 Eu and 600 Bq of ^241Am.

[2] = Radiolytic stability; conditions: 60Co irradiation, 4 kGy/h, up to 1000 kGy
Experimental: The tests of stability against irradiation were carried out in the NAYADE facility at CIEMAT site, with external ^60Co sources with an approximate activity of 5000 Ci, with a homogeneous irradiation flux. The dose rate applied in all the experiments was 4 kGy/h and integrated doses of 250 kGy, 500 kGy, 750 kGy and 1000 kGy were considered. The irradiation device consists of a metal cylinder which is introduced in a rack wherein the ^60CO sources are placed radially, such that the irradiation is homogeneous. The irradiation process is carried out submersing the device in a pool of water with a depth of 4 meters.
Irradiation tests of the solid compound (in the absence of solvent) and of the compound dissolved in the "n-dodecane/1-octanol (95:5)%vol" mixture, equilibrated with 3 mol/L nitric acid, were carried out. The organic solutions were prepared and equilibrated as detailed in the previous sections A) and B).
Once each programmed integrated dose was reached, the extraction capability of the organic samples was evaluated as detailed in section C).
The irradiation of compound 4 in solid form (in the absence of solvent) and dissolved at a 0.1 mol/L concentration in the "n-dodecane/1-octanol 1 (95:5)%vol" mixture, equilibrated with 3 mol/L nitric acid, was carried out. […] After each integrated dose, the extraction capability of Am(III) and Eu(III) was evaluated as described in section C. […]

[3] = Re-extraction with diluted nitric acid solutions; conditions: 0.1 mol/L in TPH/1-octanol (95:5)%vol; for re-extraction steps necessary: 0.016 mol/L of stable Eu(III) present
Experimental: 0.1 mol/L samples of compound 4 in a "TPH/1-octanol (95:5)%vol" mixture were prepared. Extractions of Am(III) and Eu(III) were carried out from 3 mol/L nitric acid solutions containing only the radionuclides ^152Eu and ^241Am and 3 mol/L nitric acid solutions containing the radionuclides ^152Eu and ^241Am and 0.016 mol/L of stable Eu(III), simulating the total concentration of Ln(III) in a HLLW from the PUREX process. Once the extraction process was carried out, a washing step with a 1 mol/L nitric acid solution was carried out. Then, different re-extraction steps were carried out with 0.01 mol/L nitric acid solutions, simulating a continuous process. The evolution of the concentration of Am(III) and Eu(III) in the organic phase in the different extraction, scrubbing and re-extraction steps is shown in Figure 14.
Nevertheless, it is possible to regenerate the organic solutions of compound 18 for subsequent extraction cycles in an industrial continuous process.

[4] = Batch extraction from simulated HLLW from the PUREX process, gamma spectrometry; conditions: 0.1 mol/L in TPH/1-octanol (90:10)
Source text: The feed solution used for the extraction tests is a simulated solution of an HLLW from the PUREX process, the composition of which is shown in Table 4. Table 4: Composition of the simulated HLLW-PUREX solution used for the extraction tests
The composition of the HLLW corresponds to a burn-up of 33 GWd/tHM, the generated volume of HLLW being 5000 1/t of fuel. The feed was spiked with ^241Am, ^244Cm, ^252Cf and ^152Eu. Oxalic acid and N-(2-hydroxyethyl)ethylenediaminotriacetate (HEDTA) were also added before the extraction tests.
500 µL of the aqueous and organic phases were spiked with 10 µL of a tracer solution containing 241Am, 244Cm, 252Cf and ^152Eu, and were equilibrated for 10 minutes while they were stirred vigorously in a vortex stirrer. After the separation of the phases by centrifugation, 200 µL aliquots of each phase were taken for the determination of the concentration of ^241Am and ^152Eu using a high-purity germanium spectrometer system (EG&G Ortec). The nuclides ^241Am, ^244Cm and ^252Cf were measured by alpha spectrometry with an α-Analyst device of the company Canberra-Packard GmbH, Germany.
The concentrations of the stable elements were determined by mass spectrometry with an inductively coupled plasma source (ICP-MS) in a DRC Elan 6100 device of Perkin Elmer Sciex. The aqueous phase was measured directly after the appropriate dilution. The organic phase was analyzed after having mineralized the organic matter by microwave acid digestion and subsequent dilution.
The distribution coefficients were calculated for each element according to section C).
A 0.1 mol/L solution of compound 4 in the "TPH/1-octanol (90:10)%vol" mixture was prepared. Extraction experiments were carried out with said simulated HLLW in a pure form and also adding oxalic acid and HEDTA to it. These complexing agents have shown to be effective in the DIAMEX process for the complexing of Mo, Zr (H2C2O4) and Pd (HEDTA).
Extraction experiments were carried out with said simulated HLLW in a pure form and also adding oxalic acid and HEDTA to it.

[5] = Oxalic acid 0.2 mol/L, HEDTA 0.05 mol/L, TBP 0.5 mol/L
[6] = Oxalic acid 0.2 mol/L, HEDTA 0.05 mol/L, TBP No
[7] = Oxalic acid 0.3 mol/L, HEDTA 0.05 mol/L, TBP 0.5 mol/L
[8] = Oxalic acid 0.3 mol/L, HEDTA 0.05 mol/L, TBP No
[9] = Oxalic acid No, HEDTA No, TBP 0.5 mol/L
[10] = Oxalic acid No, HEDTA No, TBP No

| Substance | stability against hydrolysis [1] | stability against radiolysis [2] | re-extraction steps necessary ([3]; 0.01 mol/L nitric acid) | re-extraction steps for complete re-extraction ([3]; only the radionuclides 152Eu and 241Am present, 0.01 mol/L nitric acid) | Distribution coefficients Am-241, γ [4, 5] | Distribution coefficients Am-241, γ [4, 6] | Distribution coefficients Am-241, γ [4, 7] | Distribution coefficients Am-241, γ [4, 8] | Distribution coefficients Am-241, γ [4, 9] | Distribution coefficients Am-241, γ [4, 10] | Am(III) and Eu(III) recovered from the organic phase ([3]; tracers only (152Eu and 241Am), after three re-extraction steps with 0.01 mol/L nitric acid) |
| --- | --- | --- | --- | --- | --- | --- | --- | --- | --- | --- | --- |
| 2-Dioctylcarbamoylmethoxy-N-[3-[3-(2-dioctylcarbamoyl-methoxyacetylamino)propoxy]propyl]acetamide [Compound 18] | very stable against hydrolysis | very stable against radiolysis | six re-extraction steps | four re-extraction steps | 70 | 100 | 61 | 97 | 65 | 96 | – |
| 2-Dioctylcarbamoylmethoxy-N-[3-[(2-dioctylcarbamoyl-methoxy-acetylamino)methyl]benzyl]acetamide [Compound 4] | very stable against hydrolysis | very stable against radiolysis | an additional re-extraction step is necessary | – | 63 | 131 | 82 | 141 | 70 | 99 | more than 99.9% |
